Measurements as given in patent publication US12630532B2, “Indole-substituted quinolines and their combination with Plk1 inhibitors for the treatment of cancer” (UNIVERSITY OF KENTUCKY RESEARCH FOUNDATION, priority 2021, dated 2026).

Tested on: LS174T cells
Test: Cell proliferation inhibition assay (5 days, cell counting)
Type: cell-based
Conditions: for inhibition at 0.062 µM / inhibition at 0.125 µM / inhibition at 0.25 µM / inhibition at 0.5 µM / IC50 / inhibition at 3 µM / inhibition at 1 µM: Homo sapiens, LS174T; for inhibition at 0.062 µM / inhibition at 0.125 µM / inhibition at 0.25 µM / inhibition at 0.5 µM: 120 h; for inhibition at 0.062 µM: 62 nM; for inhibition at 0.125 µM: 125 nM; for IC50: dose response studies, read-out: IC50 values in cell proliferation assays; for inhibition at 3 µM: read-out: Inhibition % on LS174T cells Proliferation 3 uM Inhib. %; for inhibition at 1 µM: read-out: Inhibition % on LS174T cells Proliferation 1 uM Inhib. %
Description: Cell proliferation inhibition assays were done following a previous report (32). Cancer cells were seeded into 24-well plates at a density of 20,000 cells per well in 1 mL of culture medium and were cultured overnight at 37° C. Compounds and the vehicle control (DMSO) were added to the cells. After 5 days, the medium was removed, and 100 μL of trypsin was added. The cells were resuspended in phosphate-buffered saline (PBS) and were counted by Vi-CELL XR 2.03 (Beckman Coulter, Inc. USA). The ratio R of the number of viable cells in the compound treatment group to the number of viable cells in DMSO treatment group was taken as relative growth, and the percentage growth inhibition was calculated as (1−R)*100.

Compound | inhibition at 0.5 µM (500 nM, 5 days) | inhibition at 3 µM | inhibition at 1 µM | further results
3-(1-Methyl-1H-indol-3-yl)-7-(4-methylpiperazin-1-yl)quinolin-2-amine [ISQ-3] |  |  |  | Inhibition % on LS174T cells Proliferation 250 nM (250 nM, 5 days): 27 ± 14%; Inhibition % on LS174T cells Proliferation 0.3 uM Inhib. % (0.3 uM): 73.9%; Inhibition % on LS174T cells Proliferation 500 nM (500 nM, 5 days): 89 ± 2.1%; Inhibition % on LS174T cells Proliferation 1 uM Inhib. % (1 uM): 95.5%; Inhibition % on LS174T cells Proliferation 3 uM Inhib. % (3 uM): 99.7%
Cn1cc(-c2cc3ccc(N4CCCCC4)cc3nc2N)c2ccccc21 [ISQ-2, 3-(1-Methyl-1H-indol-3-yl)-7-(piperidin-1-yl)quinolin-2-amine] | 97 ± 0.4% |  |  | inhibition at 0.062 µM (5 days): 8.2 ± 5.6%; inhibition at 0.125 µM (5 days): 28 ± 4.6%; inhibition at 0.25 µM (250 nM, 5 days): 55 ± 0.5%
CC(C)C1CCN(c2ccc3cc(-c4cn(C)c5ccccc45)c(N)nc3c2)CC1 [ISQ-4, 7-(4-Isopropylpiperidin-1-yl)-3-(1-methyl-1H-indol-3-yl)quinolin-2-amine] | 36 ± 0.9% |  |  | 
Cn1cc(-c2cc3ccc(N4CCC(Cc5ccccc5)CC4)cc3nc2N)c2ccccc21 [ISQ-5, 7-(4-Benzylpiperidin-1-yl)-3-(1-methyl-1H-indol-3-yl)quinolin-2-amine] | 21 ± 3.9% |  |  | 
Cn1cc(-c2cc3ccc(N4CCC(c5ccccc5)CC4)cc3nc2N)c2ccccc21 [ISQ-6, 3-(1-Methyl-1H-indol-3-yl)-7-(4-phenylpiperidin-1-yl)quinolin-2-amine] | 56 ± 13.1% |  |  | 
Cn1cc(-c2cc3ccc(N4CCC(CO)CC4)cc3nc2N)c2ccccc21 [ISQ-8, (1-(2-Amino-3-(1-methyl-1H-indol-3-yl)quinolin-7-yl)piperidin-4-yl)methanol] | 98 ± 0.6% |  |  | percentage inhibition of LS174T cell proliferation at 500 nM, compared among ISQs (FIG. 2B) (500 nM): comparable to the N,N-dimethylamino group in ISQ-1; inhibition at 0.062 µM (5 days): 20 ± 9%; inhibition at 0.125 µM (5 days): 59 ± 2.7%; inhibition at 0.25 µM (250 nM, 5 days): 97 ± 0.2%; IC50: ~100 nM
COCC1CCN(c2ccc3cc(-c4cn(C)c5ccccc45)c(N)nc3c2)CC1 [ISQ-9, 7-(4-(Methoxymethyl)piperidin-1-yl)-3-(1-methyl-1H-indol-3-yl)quinolin-2-amine] | 99 ± 0.1% |  |  | percentage inhibition of LS174T cell proliferation at 500 nM, compared among ISQs (FIG. 2B) (500 nM): comparable to the N,N-dimethylamino group in ISQ-1; inhibition at 0.062 µM (5 days): 12 ± 1.9%; inhibition at 0.125 µM (5 days): 55 ± 2.3%; inhibition at 0.25 µM (250 nM, 5 days): 98%; IC50: ~100 nM
Cn1cc(-c2cc3ccc(N4CCC(c5ccncc5)CC4)cc3nc2N)c2ccccc21 [ISQ-10, 3-(1-Methyl-1H-indol-3-yl)-7-(4-(pyridin-4-yl)piperidin-1-yl)quinolin-2-amine] | 99 ± 0.1% |  |  | percentage inhibition of LS174T cell proliferation at 500 nM, compared among ISQs (FIG. 2B) (500 nM): comparable to the N,N-dimethylamino group in ISQ-1; inhibition at 0.062 µM (5 days): 21 ± 5.7%; inhibition at 0.125 µM (5 days): 84 ± 2.7%; inhibition at 0.25 µM (250 nM, 5 days): 99 ± 13.1%; IC50: ~100 nM
CN(C)c1ccc2cc(-c3nc4ccc(F)cc4s3)c(N)nc2c1 [LMK-5-52] |  | 97% |  | 
CN(C)c1ccc2cc(-c3nc4ccc(Cl)cc4s3)c(N)nc2c1 [LMK-5-55] |  | 97.6% |  | 
CN(C)c1ccc2cc(-c3nc4cc(C(C)(C)C)ccc4o3)c(N)nc2c1 [LMK-5-60] |  | 91.5% |  | 
COc1ccc2nc(-c3cc4ccc(N(C)C)cc4nc3N)sc2c1 [LMK-5-62] |  | 85.5% |  | 
CN(C)c1ccc2cc(-c3nc(-c4ccc(Br)cc4)cs3)c(N)nc2c1 [LMK-5-66] |  | 98.9% | 45% | 
CN(C)c1ccc2cc(-c3nc(-c4ccccc4)cs3)c(N)nc2c1 [LMK-5-67] |  | 99.8% | 96.9% | 
COc1ccc(-c2csc(-c3cc4ccc(N(C)C)cc4nc3N)n2)cc1 [LMK-5-68] |  | 94.3% | 24.2% | 
Nc1nc2cc(N3CCOCC3)ccc2cc1-c1cc(Cl)cc(Cl)c1 [LMK-5-276] |  | 65.2% | 35% | 
CN1CCN(c2ccc3cc(-c4cc(Cl)cc(Cl)c4)c(N)nc3c2)CC1 [LMK-5-278] |  | 87.7% | 27.9% | 
Nc1nc2cc(N3CCCCC3)ccc2cc1-c1cc(Cl)cc(Cl)c1 [LMK-5-279] |  | 87.6% | 46.6% | 
